# Data: PubChem BioAssay AID2060328 (Molecular Pharmacology Branch, DTP, NCI, 2025)
# Values joined by “and” are separate entries in the source; they are usually repeats but may differ in a detail not shown here. Identical values can stand only once.
# System: MDA-MB-231 multicell spheroids, viability (%T/C)
# Assay: Anticancer human tumor MDA-MB-231 cell line growth inhibition [IpAb];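 note: viability read after seven days of drug exposure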;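 for viability, T/C: 100% = DMSO vehicle control viability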
# Conditions: for viability, T/C: stronger effect = lower value
# From the text: Combinatorial screen of targeted agents with ipatasertib and abemaciclib in multi-cell type tumor spheroids
# A high-throughput screen of multi-cell type tumor spheroids was designed to identify active combinations of targeted small molecules and ipatasertib or abemaciclib. Complex spheroids include a stromal component modeled by human endothelial cells (HUVEC) and fibroblasts modeled by human mesenchymal stem cells (MSCs). The concentration ranges selected for each drug and investigational agent were based upon clinically achievable concentrations if the clinical Cmax of the agent was known.
# Compounds. The drugs and investigational agents: ipatasertib (NSC767898), abemaciclib(NSC768073), selumetinib (NSC741078), trametinib (758246), adavosertib (NSC754352), everolimus (NSC733504), sapanisertib (NSC764658), vemurafenib (NSC761431), venetoclax (NSC766270), copanlisib (NSC809693), apelisib (NSC765974), palbociblib (NSC758247), vemurafenib (NSC761431), dabrafenib (NSC764134), ravoxertinib (NSC781343), BMS-387032 (NSC767048), sotorasib (NSC818433), talazoparib (NSC767125) and afursertib (NSC778305), were obtained from the National Cancer Institute (NCI) Developmental Therapeutics Program Chemical Repository. The FDA-approved anticancer drug set is available from the NCI Developmental Therapeutics Program. […] The stock solutions were prepared in dimethyl sulfoxide (DMSO, Sigma-Aldrich, St. Louis, MO, cat. D2650) at 800-fold the tested concentration and stored at -70 degrees C prior to their use. All drugs and investigational agents were tested over a range starting from a high concentration at or near the clinical Cmax and decreasing in half-log increments. If the clinical Cmax for an agent had not been determined, the highest concentration tested was 10 microM.
# NCI60 Cell Culture. NCI60 cell lines were obtained from the NCI Developmental Therapeutics Program Tumor Repository. For each lot of cells, the Repository performed Applied Biosystems AmpFLSTR Identifiler testing with PCR amplification to confirm consistency with the published Identifier STR profile for each cell line. Cells were kept in continuous culture for no more than 20 passages. The optimal seeding densities for each of the cell lines at each time point assessed were determined prior to performing the concentration response studies. Briefly, the NCI60 human tumor lines were grown as monolayers in RPMI 1640 medium supplemented with 10% FBS and 2 mmol/L L-glutamine.
# An additional 9 lines were from the NCI60 cell line panel including MDA-MB-231 breast carcinoma, MDA-MB-468 breast carcinoma, MCF7 breast carcinoma, Hs578T breast carcinoma, MALME-3M melanoma, SK-MEL-2 melanoma, SK-OV-3 ovarian carcinoma, DU-145 prostate carcinoma, PC-3 prostate carcinoma, all cell lines along with major genetic alterations are listed on Table 2. Pooled donor human umbilical vein endothelial cells (HUVEC, Lonza, cat. CC-2519) and human mesenchymal stem cells (hMSC, Lonza, cat. PT-2501) were purchased from Lonza (Walkersville, MD).
# PDMR cell lines were grown in complete medium (DC medium): Dulbecco's modified Eagle's medium (DMEM)/F12 supplemented with 5% fetal bovine serum (FBS), 2 mM L-glutamine, 100 U/mL penicillin and 100 µg/ml streptomycin, 0.4 µg/ml hydrocortisone, 10 ng/ml epidermal growth factor (EGF) recombinant human protein, 24 µg/mL adenine, and 0.1 mg/mL primocin. During culture from frozen stock vials, PDMR cells were cultured in the same medium containing 10 µM Y-27632 (see Table 3). The PDCs were cultured in complete DMEM/F12 media without 10 microM Y-27632 dihydrochloride for at least two passages prior to the screen. The pooled donor HUVEC and hMSC were cultured in endothelial cell growth medium 2 (PromoCell, Heidelberg, Germany, cat. C-22011) and mesenchymal stem cell growth medium 2 (PromoCell, cat. C-28009), respectively. For all experiments, HUVEC and hMSC were used at passages </=5.
# […]
IC50 (curve of compound),SMILES,"viability, T/C (compound 0.0316 µM)","viability, T/C (compound 0.1 µM)","viability, T/C (compound 0.316 µM)","viability, T/C (compound 1 µM)","viability, T/C (compound 3.16 µM)","viability, T/C (compound 10 µM)","viability, T/C (compound 0.01 µM)",further results
> 10000 nM,C=CC(=O)N1CCN(c2nc(=O)n(-c3c(C)ccnc3C(C)C)c3nc(-c4c(O)cccc4F)c(F)cc23)C(C)C1 (configuration not stated),106% and 110%,111% and 109%,109% and 117%,124% and 140%,122% and 126%,82% and 84.4%,–,–
221 nM and 246 nM,C=CCn1c(=O)c2cnc(Nc3ccc(N4CCN(C)CC4)cc3)nc2n1-c1cccc(C(C)(C)O)n1,99.7% and 119%,84.6% and 96.2%,34.6% and 37.5%,18.5% and 17.7%,16.1% and 15.1%,21.8% and 20.7%,–,–
56.4 nM and 70.1 nM,CC(=O)c1c(C)c2cnc(Nc3ccc(N4CCNCC4)cn3)nc2n(C2CCCC2)c1=O,–,–,–,–,–,–,–,"viability, T/C (compound 0.000949 µM): 103% and 105%; viability, T/C (compound 0.003 µM): 88.5% and 88.2%; viability, T/C (compound 0.00949 µM): 74% and 79.3%; viability, T/C (compound 0.03 µM): 57.7% and 57.8%; viability, T/C (compound 0.0949 µM): 42.3% and 46%; viability, T/C (compound 0.3 µM): 38.7% and 38.9%"
184 nM and 175 nM,CC(C)(C)c1cnc(CSc2cnc(NC(=O)C3CCNCC3)s2)o1,–,–,–,–,–,–,–,"viability, T/C (compound 0.00949 µM): 109%; viability, T/C (compound 0.03 µM): 118% and 115%; viability, T/C (compound 0.0949 µM): 120% and 105%; viability, T/C (compound 0.3 µM): 1.96% and 1.34%; viability, T/C (compound 0.949 µM): 1.07% and 1.11%; viability, T/C (compound 3 µM): 0.92% and 1.78%"
–,CC(C)NCC(C(=O)N1CCN(c2ncnc3c2C(C)CC3O)CC1)c1ccc(Cl)cc1 (configuration not stated),–,95.4% [middle of 13 runs],84.7% [middle of 13 runs],70.5% [middle of 13 runs],54.9% [middle of 13 runs],39.5% [middle of 13 runs],–,"IC50 (compound alone, run of 06/01/2021): 4.43 µM [middle of 13 runs]"
23.8 nM and 8.68 nM,CC(C)n1nc(-c2ccc3oc(N)nc3c2)c2c(N)ncnc21,46.5% and 41.5%,43.5% and 37.4%,–,–,–,–,57.6% and 49.4%,"viability, T/C (compound 0.000316 µM): 97.7% and 101%; viability, T/C (compound 0.001 µM): 86.1% and 104%; viability, T/C (compound 0.00316 µM): 72.2% and 72.1%"
5570 nM and 5910 nM,CC1(C)CCC(CN2CCN(c3ccc(C(=O)NS(=O)(=O)c4ccc(NCC5CCOCC5)c([N+](=O)[O-])c4)c(Oc4cnc5[nH]ccc5c4)c3)CC2)=C(c2ccc(Cl)cc2)C1,104% and 106%,105% and 104%,103% and 105%,98.5% and 103%,88.7% and 99.5%,10.3% and 8.49%,–,–
9000 nM and 7630 nM,CCCS(=O)(=O)Nc1ccc(F)c(C(=O)c2c[nH]c3ncc(-c4ccc(Cl)cc4)cc23)c1F,112% and 109%,111% and 109%,106% and 112%,100% and 104%,80.9% and 79.1%,46.6% and 41.1%,–,–
–,CCN1CCN(Cc2ccc(Nc3ncc(F)c(-c4cc(F)c5nc(C)n(C(C)C)c5c4)n3)nc2)CC1,74.8% [middle of 13 runs],58.9% [middle of 13 runs],46.5% [middle of 13 runs],48.8% [middle of 13 runs],–,–,88.6% [middle of 13 runs],–
50.1 nM and 39.5 nM,COc1c(OCCCN2CCOCC2)ccc2c3n(c(=NC(=O)c4cnc(N)nc4)nc12)CCN3,55.8% and 53.5%,43.3% and 42%,34.1% and 33.4%,37.6% and 40.3%,–,–,70.3% and 69.2%,"viability, T/C (compound 0.00316 µM): 84% and 88.5%"
